From US20210338647A1, “Combination of Acetylcholinesterase Inhibitor and 5-HT4 Receptor Agonist As Neuroprotective Agent In the Treatment of Neurodegenerative Diseases” (UNIVERSITE DE CAEN NORMANDIE, priority 2018, published 2021)

Tested on: 5XFAD mice
Assay: Astrogliosis (GFAP staining) in brain sections of 5XFAD mice
Type: in vivo, mouse
Conditions: 1 mg/kg twice a week for 3 months, versus controls
Procedure: 5XFAD mice received chronic treatments with drugs or vehicle according to 2 different protocols. In each experiment, drugs or vehicle solution were administered i.p. twice a week (1 mg/kg). In “Protocol 1”, mice (n=6-7 mice per group) were treated with compounds for two months, from 2 to 4 months of age. In “Protocol 2”, mice (n=7) were treated with compounds for three months, from 1 month to 4 months of age. At the end of each protocol, mice were anesthetized with a mixture of 100 mg/kg ketamine and 10 mg/kg xylazine in saline solution and perfused transcardially with PBS. Brains were quickly isolated on ice, the olfactory bulbs and cerebellum removed and the two hemispheres divided. One hemisphere was frozen on dry ice and stored at −80° C. for biochemical analysis, while the other was post-fixed in 4% PFA for immunohistochemistry (IHC).
Thirty-micrometer-thick sections were cut using a vibratome (Microm HM 650V, Thermo Scientific, Saint Herblain, France) and stored in cryoprotectant medium at −20° C. For the labeling of amyloid plaques, free-floating tissue sections of frontal cortex, hippocampus and entorhinal cortex (coordinates from the bregma: frontal cortex=1.98 mm, hippocampus=−1.94 mm, entorhinal cortex=−3.08 mm) were extensively washed in PBS and then incubated in blocking solution (PBS; 3% BSA; 0.1% Triton X-100) for 1 h. Sections were stained with Hoechst dye (1:1000, Life Technologies, Saint Aubin, France) for 15 minutes to detect cell nuclei and then with freshly prepared thioflavin T solution (#T3516-5G, Sigma-Aldrich) (final concentration: 0.01 mg/ml in blocking buffer) for 15 minutes. After washing in 70% ethanol for 5 minutes, samples were mounted on poly-lysine slides with coverslips. For GFAP (glial fibrillary acidic protein) staining, free-floating brain sections were blocked as before and incubated with polyclonal rabbit anti-GFAP (1:1000, Z0334, Dako, Les Ullis, France) at 4° C. overnight. After thioflavin T staining and washing with 70% ethanol, the secondary Alexafluor 594 goat anti-rabbit antibody (1:1000, A11012, Life Technologies) was added for 2 h. PBS washes and mounting were performed as described before.
Images were acquired with an Axiolmager Z1 microscope (Carl Zeiss S.A.S., Marly le Roi, France). Analysis of thioflavin T staining was performed blindly and data are presented as the mean number of particles per mm^2 in two to three tissue sections from the same brain area/animal (Image J software). GFAP expression was quantified using Image J software and results are expressed as area fractions.
28 female 5XFAD mice (C57BL/6J genetic background) were used in this study. Mice received vehicle or compounds (1 mg/kg) i.p., twice a week for three months, from 1 to 4 months of age.

SMILES: CCCCN1CCC(CCC(=O)c2cc(Cl)c(N)cc2OC)CC1 [RS67333, 1-(4-amino-5-chloro-2-methoxy-phenyl)-3-(1-butyl-4-piperidinyl)-1-propanone]
- GFAP staining in frontal cortex: not significantly different compared to controls
- GFAP staining in hippocampus: not significantly different compared to controls
